Measured values as given in ChEMBL document CHEMBL1131689, “Synthesis and evaluation of geldanamycin-estradiol hybrids” (Bioorg Med Chem Lett, 1999).

Key:
Format in all cases: functional, cell-based
Heat shock protein HSP90 = Heat shock protein HSP90 (Homo sapiens, UniProt P07900+P08238); assay: Inhibition of steady-state expression of Raf-1 in MCF-7 breast cancer cells; conditions: mcf7
[1] = Inhibition of steady-state expression of HER2 in MCF-7 breast cancer cells; conditions: Homo sapiens, MCF7
[2] = Inhibition of steady-state expression of ER in MCF-7 breast cancer cells; conditions: Homo sapiens, MCF7

SMILES | IC50 (Heat shock protein HSP90) | IC50 [1] | IC50 [2]
CO[C@@H]1/C=C\C=C(/C)C(=O)NC2=CC(=O)C(NC/C=C/C[C@@H]3C[C@H]4[C@@H]5CCc6cc(O)ccc6[C@H]5CC[C@]4(C)[C@H]3O)=C(C[C@H](C)C[C@@H](OC)[C@@H](O)[C@H](C)/C=C(\C)[C@H]1OC(N)=O)C2=O | 1500 nM | 100 nM | 80 nM
CO[C@@H]1/C=C\C=C(/C)C(=O)NC2=CC(=O)C(NCC#CC[C@@H]3C[C@H]4[C@@H]5CCc6cc(O)ccc6[C@H]5CC[C@]4(C)[C@H]3O)=C(C[C@H](C)C[C@@H](OC)[C@@H](O)[C@H](C)/C=C(\C)[C@H]1OC(N)=O)C2=O | 1500 nM | 100 nM | 220 nM
CO[C@@H]1/C=C\C=C(/C)C(=O)NC2=CC(=O)C(NCCCC[C@@H]3C[C@H]4[C@@H]5CCc6cc(O)ccc6[C@H]5CC[C@]4(C)[C@H]3O)=C(C[C@H](C)C[C@@H](OC)[C@@H](O)[C@H](C)/C=C(\C)[C@H]1OC(N)=O)C2=O | > 2000 nM | > 2000 nM | > 2000 nM
CO[C@@H]1/C=C\C=C(/C)C(=O)NC2=CC(=O)C(NCCC[C@@H]3C[C@H]4[C@@H]5CCc6cc(O)ccc6[C@H]5CC[C@]4(C)[C@H]3O)=C(C[C@H](C)C[C@@H](OC)[C@@H](O)[C@H](C)/C=C(\C)[C@H]1OC(N)=O)C2=O | > 2000 nM | > 2000 nM | > 2000 nM
